# From ChEMBL document CHEMBL1152232, “Muscarinic acetylcholine receptor antagonists: SAR and optimization of tyrosine ureas” (Bioorg Med Chem Lett, 2008)
# pIC50: −log10 of the molar value.
# Assays:
# Type in all cases: functional, cell-based
# Settings in all cases: for Kb: read-out: pA2 (converted)
# [1] = target: T1, Muscarinic acetylcholine receptor M1 (Homo sapiens, UniProt P11229); experiment: Antagonist activity at human recombinant muscarinic M1 receptor expressed in CHO cells assessed as inhibition of acetylcholine-induced intracellular Ca2+ mobilization by FLIPR assay
# T1 sequence (P11229 whole entry): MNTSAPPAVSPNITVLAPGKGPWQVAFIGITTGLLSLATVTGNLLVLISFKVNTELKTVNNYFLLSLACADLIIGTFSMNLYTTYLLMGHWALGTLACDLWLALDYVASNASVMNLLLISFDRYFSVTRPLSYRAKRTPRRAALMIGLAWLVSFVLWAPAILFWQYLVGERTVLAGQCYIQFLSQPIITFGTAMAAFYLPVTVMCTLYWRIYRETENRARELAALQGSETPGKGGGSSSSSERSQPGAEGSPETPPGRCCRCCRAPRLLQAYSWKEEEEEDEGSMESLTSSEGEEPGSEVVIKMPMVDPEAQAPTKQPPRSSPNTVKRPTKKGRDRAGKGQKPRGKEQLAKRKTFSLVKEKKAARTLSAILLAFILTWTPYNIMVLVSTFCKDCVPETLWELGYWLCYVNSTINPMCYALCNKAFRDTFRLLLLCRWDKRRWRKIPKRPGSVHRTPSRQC
# [2] = target: T2, Muscarinic acetylcholine receptor M2 (Homo sapiens, UniProt P08172); experiment: Antagonist activity at human recombinant muscarinic M2 receptor expressed in CHO cells coexpressing chimeric G protein Gqi5 assessed as inhibition of acetylcholine-induced intracellular Ca2+ mobilization by FLIPR assay
# T2 sequence (P08172 whole entry): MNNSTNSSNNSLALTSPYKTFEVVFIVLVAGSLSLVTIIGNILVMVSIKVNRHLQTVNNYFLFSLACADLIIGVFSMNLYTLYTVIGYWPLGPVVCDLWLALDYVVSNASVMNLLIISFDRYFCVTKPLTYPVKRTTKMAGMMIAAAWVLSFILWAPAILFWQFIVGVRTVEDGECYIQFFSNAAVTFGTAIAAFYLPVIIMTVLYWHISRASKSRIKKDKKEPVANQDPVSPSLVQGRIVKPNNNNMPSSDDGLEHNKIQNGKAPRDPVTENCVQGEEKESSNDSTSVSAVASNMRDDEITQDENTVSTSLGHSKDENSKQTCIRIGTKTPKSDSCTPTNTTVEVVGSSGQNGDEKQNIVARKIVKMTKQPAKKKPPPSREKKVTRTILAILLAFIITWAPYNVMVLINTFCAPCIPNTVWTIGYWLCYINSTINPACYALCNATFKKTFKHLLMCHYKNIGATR
# [3] = target: Muscarinic acetylcholine receptor M3 (Homo sapiens, UniProt P20309); experiment: Antagonist activity at human recombinant muscarinic M3 receptor expressed in CHO cells assessed as inhibition of acetylcholine-induced intracellular Ca2+ mobilization by FLIPR assay
# Sequence of Muscarinic acetylcholine receptor M3 (P20309 whole entry): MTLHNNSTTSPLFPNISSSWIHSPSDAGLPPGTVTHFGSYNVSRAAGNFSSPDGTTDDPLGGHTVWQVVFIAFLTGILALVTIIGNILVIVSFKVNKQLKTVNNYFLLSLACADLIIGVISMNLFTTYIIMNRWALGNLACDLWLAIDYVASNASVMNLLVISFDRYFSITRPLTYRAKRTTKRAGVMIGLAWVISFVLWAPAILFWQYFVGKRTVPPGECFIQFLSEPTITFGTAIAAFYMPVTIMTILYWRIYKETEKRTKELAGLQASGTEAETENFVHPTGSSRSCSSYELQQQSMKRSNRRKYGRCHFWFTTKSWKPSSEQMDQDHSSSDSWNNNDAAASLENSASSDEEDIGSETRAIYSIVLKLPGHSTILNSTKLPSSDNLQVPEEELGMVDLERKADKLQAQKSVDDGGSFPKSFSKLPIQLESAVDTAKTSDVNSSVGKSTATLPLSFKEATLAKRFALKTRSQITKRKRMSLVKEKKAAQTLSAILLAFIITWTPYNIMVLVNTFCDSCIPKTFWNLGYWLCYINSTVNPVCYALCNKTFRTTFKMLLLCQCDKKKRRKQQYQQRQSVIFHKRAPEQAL
Compound,pIC50 [1],pIC50 [2],pIC50 [3],Kb [1] [nM],Kb [2] [nM],Kb [3] [nM]
Cc1noc(-c2ccc(NC(=O)N[C@@H](Cc3ccc(O)cc3)C(=O)N[C@H]3CCC[N+](C)(Cc4ccc(O)cc4)C3)cc2)n1 (stereo not given in full),–,–,–,158,6.31,2
CCOC(=O)c1ccc(NC(=O)N[C@@H](Cc2ccccc2Cl)C(=O)N[C@H]2CC[N+](C)(Cc3ccc4c(c3)OCO4)C2)cc1 (stereo not given in full),5.70,7.00,6.90,–,–,–
CCOC(=O)c1ccc(NC(=O)N[C@@H](Cc2cccc(Cl)c2)C(=O)N[C@H]2CC[N+](C)(Cc3ccc4c(c3)OCO4)C2)cc1 (stereo not given in full),7.60,8.40,8.10,–,–,–
CCNC(=O)c1ccc(NC(=O)N[C@@H](Cc2ccc(O)cc2)C(=O)NC2CCN(Cc3ccc(C#N)cc3)C2)cc1 (stereo not given in full),< 5.50,< 5.50,6.50,–,–,–
CCCOC(=O)c1ccc(NC(=O)N[C@@H](Cc2ccc(O)cc2)C(=O)NC2CCN(Cc3ccc(O)cc3)C2)cc1 (stereo not given in full),6.00,7.00,8.00,–,–,–
CCOC(=O)c1ccc(NC(=O)N[C@@H](Cc2ccc(F)cc2)C(=O)N[C@H]2CC[N+](C)(Cc3ccc4c(c3)OCO4)C2)cc1 (stereo not given in full),7.00,8.00,7.80,–,–,–
CCOC(=O)c1ccc(NC(=O)N[C@@H](Cc2ccc(C)cc2)C(=O)N[C@H]2CC[N+](C)(Cc3ccc4c(c3)OCO4)C2)cc1 (stereo not given in full),7.00,8.00,7.80,–,–,–
N#Cc1ccc(CN2CCC(NC(=O)[C@H](Cc3ccc(O)cc3)NC(=O)Nc3ccc(C(=O)NCc4ccccc4)cc3)C2)cc1 (stereo not given in full),< 5.50,< 5.50,5.80,–,–,–
CCOC(=O)c1ccc(NC(=O)N[C@@H](Cc2ccc(Cl)c(Cl)c2)C(=O)N[C@H]2CC[N+](C)(Cc3ccc4c(c3)OCO4)C2)cc1 (stereo not given in full),7.40,7.90,7.60,–,–,–

# The remaining lines, values ahead:
pIC50 [1],pIC50 [2],pIC50 [3],Kb [1] [nM],Kb [2] [nM],Kb [3] [nM],Compound
7.30,8.00,7.50,–,–,–,CCOC(=O)c1ccc(NC(=O)N[C@@H](Cc2ccc(C(F)(F)F)cc2)C(=O)N[C@H]2CC[N+](C)(Cc3ccc4c(c3)OCO4)C2)cc1 (stereo not given in full)
7.10,8.30,7.40,–,–,–,CCOC(=O)c1ccc(NC(=O)N[C@@H](Cc2ccc(OC)cc2)C(=O)N[C@H]2CC[N+](C)(Cc3ccc4c(c3)OCO4)C2)cc1 (stereo not given in full)
< 5.50,< 5.50,6.00,–,–,–,N#Cc1ccc(CN2CCC(NC(=O)[C@H](Cc3ccc(O)cc3)NC(=O)Nc3ccc(C(=O)N4CCOCC4)cc3)C2)cc1 (stereo not given in full)
8.00,8.60,7.90,–,–,–,CCOC(=O)c1ccc(NC(=O)N[C@@H](Cc2ccc(C(=O)c3ccccc3)cc2)C(=O)N[C@H]2CC[N+](C)(Cc3ccc4c(c3)OCO4)C2)cc1 (stereo not given in full)
–,–,–,79.4,3.98,0.631,CC(C)NC(=O)c1ccc(NC(=O)N[C@@H](Cc2ccc(O)cc2)C(=O)N[C@H]2CCC[N+](C)(Cc3ccc(O)cc3)C2)cc1 (stereo not given in full)
< 5.50,5.80,7.00,–,–,–,CC(C)NC(=O)c1ccc(NC(=O)N[C@@H](Cc2ccc(O)cc2)C(=O)NC2CCN(Cc3ccc(C#N)cc3)C2)cc1 (stereo not given in full)
–,–,–,79.4,5.01,3.16,CC(C)OC(=O)c1ccc(NC(=O)N[C@@H](Cc2ccc(O)cc2)C(=O)N[C@H]2CCC[N+]3(CCCCCC3)C2)cc1
7.40,8.20,8.00,–,–,–,CCOC(=O)c1ccc(NC(=O)N[C@@H](Cc2ccc(Cl)cc2)C(=O)N[C@H]2CC[N+](C)(Cc3ccc4c(c3)OCO4)C2)cc1 (stereo not given in full)
7.50,8.40,7.90,–,–,–,CCOC(=O)c1ccc(NC(=O)N[C@@H](Cc2ccc(Br)cc2)C(=O)N[C@H]2CC[N+](C)(Cc3ccc4c(c3)OCO4)C2)cc1 (stereo not given in full)
6.70,7.40,8.20,–,–,–,CCOC(=O)c1ccc(NC(=O)N[C@@H](Cc2ccc(O)cc2)C(=O)N[C@H]2CC[N+](C)(Cc3ccc(F)cc3)C2)cc1 (stereo not given in full)
6.00,6.50,7.60,–,–,–,COC(=O)c1ccc(NC(=O)N[C@@H](Cc2ccc(O)cc2)C(=O)NC2CCN(Cc3ccc(O)cc3)C2)cc1 (stereo not given in full)
